Laboratory results: patent US6518243B1, “Desleucyl glycopeptide antibiotics and methods of making same” (Trustees of Princeton University, priority 1999, dated 2003)

Assays:
Assay in all cases: Zone of inhibition screen, 96 well agar array format
Format in all cases: cell-based
Design in all cases: scale not given here
[1] = tested on: E. faecalis (CL 4877)
How it was run: (§1)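 Each compound was tested for antibacterial activity against a shared bacterial panel, with screening carried out on agar in a 96-well array.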

[2] = tested on: S. aureus (ATCC 29213)
How it was run: as §1

[3] = tested on: S. epidermidis (ATCC 12228)
How it was run: as §1

[4] = zone of inhibition relative to 1 mg/ml stock solution of p-chlorobiphenylvancomycin
[5] = zone of inhibition relative to 1 mg/ml p-chlorobiphenylvancomycin

Row | SMILES | zone score, E. faecalis CL 4877 [1, 4] | zone score, S. aureus ATCC 29213 [2, 4] | zone score, S. epidermidis ATCC 12228 [3, 4] | zone score, E. faecalis CL 4877 [1, 5] | zone score, S. aureus ATCC 29213 [2, 5] | zone score, S. epidermidis ATCC 12228 [3, 5]
1 | CC1OC(OC2C(Oc3c4cc5cc3Oc3ccc(cc3Cl)C(O)C3NC(=O)C(NC(=O)C5NC(=O)C(CC(N)=O)NC(=O)C(NC(=O)C5CNCCO5)C(O)c5ccc(c(Cl)c5)O4)c4ccc(O)c(c4)-c4c(O)cc(O)cc4C(C(=O)O)NC3=O)OC(CO)C(O)C2O)CC(C)(NCc2ccc(-c3ccc(Cl)cc3)cc2)C1O (mixture of isomers) [Compound 23] | 2 | 2 | 2 |  |  | 
2 | CC(=O)OC(CC(=O)NC1C(=O)NC(CC(N)=O)C(=O)NC2C(=O)NC3C(=O)NC(C(=O)NC(C(=O)O)c4cc(O)cc(O)c4-c4cc3ccc4O)C(O)c3ccc(c(Cl)c3)Oc3cc2cc(c3OC2OC(CO)C(O)C(O)C2OC2CC(C)(NCc3ccc(-c4ccc(Cl)cc4)cc3)C(O)C(C)O2)Oc2ccc(cc2Cl)C1O)C[N+](C)(C)C (mixture of isomers) [Compound 118] |  | 2 | 2 |  |  | 
3 | CSCCC(NC(C)=O)C(=O)NC1C(=O)NC(CC(N)=O)C(=O)NC2C(=O)NC3C(=O)NC(C(=O)NC(C(=O)O)c4cc(O)cc(O)c4-c4cc3ccc4O)C(O)c3ccc(c(Cl)c3)Oc3cc2cc(c3OC2OC(CO)C(O)C(O)C2OC2CC(C)(NCc3ccc(-c4ccc(Cl)cc4)cc3)C(O)C(C)O2)Oc2ccc(cc2Cl)C1O (mixture of isomers) [Compound 175] |  | 2 | 2 |  |  | 
4 | CC(=O)N1CCCC1C(=O)NC1C(=O)NC(CC(N)=O)C(=O)NC2C(=O)NC3C(=O)NC(C(=O)NC(C(=O)O)c4cc(O)cc(O)c4-c4cc3ccc4O)C(O)c3ccc(c(Cl)c3)Oc3cc2cc(c3OC2OC(CO)C(O)C(O)C2OC2CC(C)(NCc3ccc(-c4ccc(Cl)cc4)cc3)C(O)C(C)O2)Oc2ccc(cc2Cl)C1O (mixture of isomers) [Compound 176] | 2 | 2 | 2 |  |  | 
5 | CC(NC(N)=O)C(=O)NC1C(=O)NC(CC(N)=O)C(=O)NC2C(=O)NC3C(=O)NC(C(=O)NC(C(=O)O)c4cc(O)cc(O)c4-c4cc3ccc4O)C(O)c3ccc(c(Cl)c3)Oc3cc2cc(c3OC2OC(CO)C(O)C(O)C2OC2CC(C)(NCc3ccc(-c4ccc(Cl)cc4)cc3)C(O)C(C)O2)Oc2ccc(cc2Cl)C1O (mixture of isomers) [Compound 206] |  |  |  | 2 | 2 | 2
6 | CCC(O)C(=O)NC1C(=O)NC(CC(N)=O)C(=O)NC2C(=O)NC3C(=O)NC(C(=O)NC(C(=O)O)c4cc(O)cc(O)c4-c4cc3ccc4O)C(O)c3ccc(c(Cl)c3)Oc3cc2cc(c3OC2OC(CO)C(O)C(O)C2OC2CC(C)(NCc3ccc(-c4ccc(Cl)cc4)cc3)C(O)C(C)O2)Oc2ccc(cc2Cl)C1O (mixture of isomers) [Compound 286] |  |  |  | 2 | 2 | 2
7 | CC(=O)NC(Cc1cnc[nH]1)C(=O)NC1C(=O)NC(CC(N)=O)C(=O)NC2C(=O)NC3C(=O)NC(C(=O)NC(C(=O)O)c4cc(O)cc(O)c4-c4cc3ccc4O)C(O)c3ccc(c(Cl)c3)Oc3cc2cc(c3OC2OC(CO)C(O)C(O)C2OC2CC(C)(NCc3ccc(-c4ccc(Cl)cc4)cc3)C(O)C(C)O2)Oc2ccc(cc2Cl)C1O (mixture of isomers) [Compound 324] |  |  |  | 2 | 2 | 2
8 | CCCCCCCCCCCCCC(=O)NCC(=O)N[C@H]1C(=O)N[C@@H](CC(N)=O)C(=O)N[C@H]2C(=O)N[C@H]3C(=O)N[C@H](C(=O)N[C@@H](C(=O)O)c4cc(O)cc(O)c4-c4cc3ccc4O)[C@H](O)c3ccc(c(Cl)c3)Oc3cc2cc(c3O[C@@H]2O[C@H](CO)[C@@H](O)[C@H](O)[C@H]2O[C@@H]2C[C@@](C)(NCc3ccc(-c4ccc(Cl)cc4)cc3)[C@@H](O)[C@@H](C)O2)Oc2ccc(cc2Cl)[C@H]1O [Compound 22] |  | 2 | 2 |  |  | 
9 | CSCCC(N)C(O)CC(=O)NC1C(=O)NC(CC(N)=O)C(=O)NC2C(=O)NC3C(=O)NC(C(=O)NC(C(=O)O)c4cc(O)cc(O)c4-c4cc3ccc4O)C(O)c3ccc(c(Cl)c3)Oc3cc2cc(c3OC2OC(CO)C(O)C(O)C2OC2CC(C)(NCc3ccc(-c4ccc(Cl)cc4)cc3)C(O)C(C)O2)Oc2ccc(cc2Cl)C1O (stereo not shown) [Compound 31] |  | 2 | 2 |  |  | 
10 | CC1OC(OC2C(Oc3c4cc5cc3Oc3ccc(cc3Cl)C(O)C3NC(=O)C(NC(=O)C5NC(=O)C(CC(N)=O)NC(=O)C(NC(=O)CC(N)C(N)=O)C(O)c5ccc(c(Cl)c5)O4)c4ccc(O)c(c4)-c4c(O)cc(O)cc4C(C(=O)O)NC3=O)OC(CO)C(O)C2O)CC(C)(NCc2ccc(-c3ccc(Cl)cc3)cc2)C1O (stereo not shown) [Compound 74] |  | 2 | 2 |  |  | 
11 | CC1OC(OC2C(Oc3c4cc5cc3Oc3ccc(cc3Cl)C(O)C3NC(=O)C(NC(=O)C5NC(=O)C(CC(N)=O)NC(=O)C(NC(=O)C(N)CCCCNC(N)=O)C(O)c5ccc(c(Cl)c5)O4)c4ccc(O)c(c4)-c4c(O)cc(O)cc4C(C(=O)O)NC3=O)OC(CO)C(O)C2O)CC(C)(NCc2ccc(-c3ccc(Cl)cc3)cc2)C1O (stereo not shown) [Compound 78] |  | 2 | 2 |  |  | 
12 | C=CCOC(=O)NCCC(N)C(=O)NC1C(=O)NC(CC(N)=O)C(=O)NC2C(=O)NC3C(=O)NC(C(=O)NC(C(=O)O)c4cc(O)cc(O)c4-c4cc3ccc4O)C(O)c3ccc(c(Cl)c3)Oc3cc2cc(c3OC2OC(CO)C(O)C(O)C2OC2CC(C)(NCc3ccc(-c4ccc(Cl)cc4)cc3)C(O)C(C)O2)Oc2ccc(cc2Cl)C1O (stereo not shown) [Compound 93] |  | 2 | 2 |  |  | 
13 | CC(=O)OCC(=O)NC1C(=O)NC(CC(N)=O)C(=O)NC2C(=O)NC3C(=O)NC(C(=O)NC(C(=O)O)c4cc(O)cc(O)c4-c4cc3ccc4O)C(O)c3ccc(c(Cl)c3)Oc3cc2cc(c3OC2OC(CO)C(O)C(O)C2OC2CC(C)(NCc3ccc(-c4ccc(Cl)cc4)cc3)C(O)C(C)O2)Oc2ccc(cc2Cl)C1O (stereo not shown) [Compound 117] |  | 2 | 2 |  |  | 
14 | CC1OC(OC2C(Oc3c4cc5cc3Oc3ccc(cc3Cl)C(O)C3NC(=O)C(NC(=O)C5NC(=O)C(CC(N)=O)NC(=O)C(NC(=O)c5cc(=O)[nH]c(=O)[nH]5)C(O)c5ccc(c(Cl)c5)O4)c4ccc(O)c(c4)-c4c(O)cc(O)cc4C(C(=O)O)NC3=O)OC(CO)C(O)C2O)CC(C)(NCc2ccc(-c3ccc(Cl)cc3)cc2)C1O (stereo not shown) [Compound 198] |  | 2 | 2 |  |  | 
15 | CC1OC(OC2C(Oc3c4cc5cc3Oc3ccc(cc3Cl)C(O)C3NC(=O)C(NC(=O)C5NC(=O)C(CC(N)=O)NC(=O)C(NC(=O)C5CCC(=O)O5)C(O)c5ccc(c(Cl)c5)O4)c4ccc(O)c(c4)-c4c(O)cc(O)cc4C(C(=O)O)NC3=O)OC(CO)C(O)C2O)CC(C)(NCc2ccc(-c3ccc(Cl)cc3)cc2)C1O (stereo not shown) [Compound 227] |  |  |  |  | 2 | 2
16 | CC1OC(OC2C(Oc3c4cc5cc3Oc3ccc(cc3Cl)C(O)C3NC(=O)C(NC(=O)C5NC(=O)C(CC(N)=O)NC(=O)C(NC(=O)c5ccccc5F)C(O)c5ccc(c(Cl)c5)O4)c4ccc(O)c(c4)-c4c(O)cc(O)cc4C(C(=O)O)NC3=O)OC(CO)C(O)C2O)CC(C)(NCc2ccc(-c3ccc(Cl)cc3)cc2)C1O (stereo not shown) [Compound 238] |  |  |  |  | 2 | 2
17 | CC1OC(OC2C(Oc3c4cc5cc3Oc3ccc(cc3Cl)C(O)C3NC(=O)C(NC(=O)C5NC(=O)C(CC(N)=O)NC(=O)C(NC(=O)c5ccco5)C(O)c5ccc(c(Cl)c5)O4)c4ccc(O)c(c4)-c4c(O)cc(O)cc4C(C(=O)O)NC3=O)OC(CO)C(O)C2O)CC(C)(NCc2ccc(-c3ccc(Cl)cc3)cc2)C1O (stereo not shown) [Compound 240] |  |  |  |  | 2 | 2
18 | CC1OC(OC2C(Oc3c4cc5cc3Oc3ccc(cc3Cl)C(O)C3NC(=O)C(NC(=O)C5NC(=O)C(CC(N)=O)NC(=O)C(NC(=O)C=Cc5ccco5)C(O)c5ccc(c(Cl)c5)O4)c4ccc(O)c(c4)-c4c(O)cc(O)cc4C(C(=O)O)NC3=O)OC(CO)C(O)C2O)CC(C)(NCc2ccc(-c3ccc(Cl)cc3)cc2)C1O (stereo not shown) [Compound 244] |  |  |  |  | 2 | 2
19 | CC1OC(OC2C(Oc3c4cc5cc3Oc3ccc(cc3Cl)C(O)C3NC(=O)C(NC(=O)C5NC(=O)C(CC(N)=O)NC(=O)C(NC(=O)c5ccc(O)cc5)C(O)c5ccc(c(Cl)c5)O4)c4ccc(O)c(c4)-c4c(O)cc(O)cc4C(C(=O)O)NC3=O)OC(CO)C(O)C2O)CC(C)(NCc2ccc(-c3ccc(Cl)cc3)cc2)C1O (stereo not shown) [Compound 271] |  |  |  |  | 2 | 2
20 | CC1OC(OC2C(Oc3c4cc5cc3Oc3ccc(cc3Cl)C(O)C3NC(=O)C(NC(=O)C5NC(=O)C(CC(N)=O)NC(=O)C(NC(=O)c5nccnc5C(N)=O)C(O)c5ccc(c(Cl)c5)O4)c4ccc(O)c(c4)-c4c(O)cc(O)cc4C(C(=O)O)NC3=O)OC(CO)C(O)C2O)CC(C)(NCc2ccc(-c3ccc(Cl)cc3)cc2)C1O (stereo not shown) [Compound 283] |  |  |  |  | 2 | 2
21 | CC1OC(OC2C(Oc3c4cc5cc3Oc3ccc(cc3Cl)C(O)C3NC(=O)C(NC(=O)C5NC(=O)C(CC(N)=O)NC(=O)C(NC(=O)C=NNC(N)=O)C(O)c5ccc(c(Cl)c5)O4)c4ccc(O)c(c4)-c4c(O)cc(O)cc4C(C(=O)O)NC3=O)OC(CO)C(O)C2O)CC(C)(NCc2ccc(-c3ccc(Cl)cc3)cc2)C1O (stereo not shown) [Compound 289] |  |  |  |  | 2 | 2
22 | CC1OC(OC2C(Oc3c4cc5cc3Oc3ccc(cc3Cl)C(O)C3NC(=O)C(NC(=O)C5NC(=O)C(CC(N)=O)NC(=O)C(NC(=O)C5CCCO5)C(O)c5ccc(c(Cl)c5)O4)c4ccc(O)c(c4)-c4c(O)cc(O)cc4C(C(=O)O)NC3=O)OC(CO)C(O)C2O)CC(C)(NCc2ccc(-c3ccc(Cl)cc3)cc2)C1O (stereo not shown) [Compound 316] |  |  |  |  | 2 | 2
